“And” between values parts separate entries of the source, which are not always exact repeats. Identical values can stand only once.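 The compound was tested at five concentrations on cells cultured in 96-well plates, with a 48-hour exposure period. Abbreviation: GI50, concentration required for 50% inhibition of growth. At the TGI there is no net growth.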
Assays:
Assay in all cases: NCI-60 cell line screen, 48 h
MALME-3M melanoma = system: MALME-3M melanoma
TK-10 renal = system: TK-10 renal
A549 NSCLC = system: A549 NSCLC
RPMI-8226 leukemia = system: RPMI-8226 leukemia
LOX IMVI melanoma = system: LOX IMVI melanoma
SF-295 CNS = system: SF-295 CNS
HCT-116 colon = system: HCT-116 colon
NCI/ADR-RES ovarian = system: NCI/ADR-RES ovarian

Structure (SMILES)	GI50 (MALME-3M melanoma)	TGI (MALME-3M melanoma)	GI50 (TK-10 renal)	TGI (TK-10 renal)	GI50 (A549 NSCLC)	TGI (A549 NSCLC)	GI50 (RPMI-8226 leukemia)	TGI (RPMI-8226 leukemia)	GI50 (LOX IMVI melanoma)	TGI (LOX IMVI melanoma)	GI50 (SF-295 CNS)	TGI (SF-295 CNS)	GI50 (HCT-116 colon)	TGI (HCT-116 colon)	GI50 (NCI/ADR-RES ovarian)	TGI (NCI/ADR-RES ovarian)
O=C1C(=O)c2c(nc3ccc(C(F)(F)F)cn23)-c2ccccc21	0.158 µM	0.295 µM	0.738 µM	1.24 µM	0.513 µM	1.23 µM	0.169 µM	0.53 µM	0.173 µM	0.354 µM	0.436 µM	0.855 µM	0.176 µM	0.354 µM	0.23 µM	0.581 µM
Oc1ccc(Cl)cc1C=Nc1cnc2ccccc2c1	–	> 100 µM	–	> 100 µM	–	> 100 µM	–	85.6 µM	–	> 100 µM	–	> 100 µM	–	> 100 µM	–	> 100 µM
C[C@@]1(F)[C@H](O)[C@@H](CO)O[C@H]1n1ccc(=O)[nH]c1=O	> 100 µM	> 100 µM	> 100 µM	> 100 µM	> 100 µM	> 100 µM	> 100 µM	> 100 µM	> 100 µM	> 100 µM	> 100 µM	> 100 µM	> 100 µM	> 100 µM	> 100 µM	> 100 µM
COc1ccc(-c2ccc(C3CC(c4ccccc4)=NN3)o2)c([N+](=O)[O-])c1 (stereo unspecified)	–	–	22.1 µM	63.8 µM	47.1 µM	> 100 µM	31 µM	> 100 µM	–	–	28.6 µM	> 100 µM	33.5 µM	> 100 µM	33.9 µM	> 100 µM
C/C(=N/NC(=S)Nc1ccccc1)c1nc2ccc(Cl)cc2[nH]1	0.0737 µM	0.401 µM	0.539 µM	2.61 µM	0.217 µM	1.41 µM	0.202 µM	3.36 µM	–	–	–	–	0.0811 µM	0.771 µM	–	–
CC1CCC2C(C)C(=O)OC2C2(C)C(=O)C=CC12 (stereo unspecified)	–	–	–	> 10 µM	–	> 10 µM	–	> 10 µM	–	> 10 µM	–	> 10 µM	–	> 10 µM	–	> 10 µM
CC1=NN(c2cccc(Cl)c2)C(=O)/C1=C\c1cn(CC(O)CN2CCCCC2)c2ccccc12 (stereo unspecified)	–	–	7.51 µM	21.3 µM	24.6 µM	72.9 µM	2.91 µM	8.73 µM	–	–	2.24 µM	5.49 µM	1.74 µM	3.35 µM	4.79 µM	20.7 µM
OCC(O)C(O)C(O)C(/C=N\Nc1ncnc2c(Br)cc(Br)cc12)=N/Nc1ncnc2c(Br)cc(Br)cc12 (stereo unspecified)	–	14.4 µM and > 100 µM	–	28.1 µM and > 100 µM	5.04 µM and 15.4 µM	21.6 µM and > 100 µM	19.6 µM	> 100 µM	–	31.4 µM and > 100 µM	2.46 µM and 10.9 µM	–	19.1 µM and 3.44 µM	> 100 µM	–	–
COc1cc2c(cc1C)NC(=O)/C2=C/c1ccnc2ccccc12	–	–	35.8 µM	> 50 µM	20.8 µM	> 50 µM	19.7 µM	> 50 µM	–	–	25.3 µM	> 50 µM	24.4 µM	> 50 µM	15.6 µM	41.2 µM
N=C1CCCC1C(=S)SCCC(N)=O (stereo unspecified)	–	> 100 µM	–	> 100 µM	–	> 100 µM	–	> 100 µM	–	–	–	> 100 µM	–	> 100 µM	–	> 100 µM
O=C(Nc1ccc(Cl)cc1C(F)(F)F)C(=O)Nn1c(=S)[nH]c2ccccc2c1=O	–	–	–	> 100 µM	–	> 100 µM	–	> 100 µM	–	> 100 µM	–	> 100 µM	–	> 100 µM	–	> 100 µM
C=C1C(=O)O[C@@H]2/C=C(/C)[C@@H](OC(C)=O)C/C=C(\C)C(O)[C@@H](OC(=O)/C(C)=C\C)C12 (stereo partly specified)	–	–	–	> 100 µM	–	> 100 µM	–	60.7 µM	–	27.7 µM	–	> 100 µM	–	29.8 µM	–	76.5 µM
CCN(CC)C(=S)SSC(C)C	13.7 µM	30 µM	20.3 µM	38 µM	31.2 µM	> 100 µM	1.94 µM	18.4 µM	4.67 µM	24.1 µM	17.9 µM	49 µM	–	–	16 µM	35.7 µM
O=C1NC(=NCCc2ccc(Cl)cc2)S/C1=C\c1ccc2ncccc2c1	> 25 µM	> 25 µM	–	–	15 µM	> 25 µM	> 23 µM	> 25 µM	> 20.9 µM	> 25 µM	24.4 µM	> 25 µM	9.14 µM	> 25 µM	19.5 µM	> 25 µM
OCc1ccc(N(Cc2ccc(F)cc2)Cc2ccc(F)cc2)cc1Cl	18.4 µM	35.4 µM	2.08 µM	11.2 µM	6.72 µM	22.1 µM	8.44 µM	30.4 µM	9.51 µM	23.3 µM	–	–	2.87 µM	10.8 µM	12.3 µM	30.4 µM
O=c1c(-c2ccc3c(c2)OCO3)coc2c3c(ccc12)OCO3	–	–	–	36.8 µM	–	> 100 µM	–	> 100 µM	–	> 100 µM	–	37.1 µM	–	> 100 µM	–	–
COc1cc2c(/C=C3\C(=O)Nc4ccccc43)c[nH]c2cc1C	–	–	1.31 µM	9.95 µM	< 0.0289 µM	17.3 µM	0.0393 µM	16.2 µM	0.652 µM	4.19 µM	0.227 µM	1.65 µM	< 0.01 µM	1.22 µM	< 0.01 µM	0.0736 µM
CC(C)C[C@@H](N)[C@@H](O)C(=O)N[C@H](C(=O)N[C@H](C(=O)N[C@@H](CC(=O)O)C(=O)O)C(C)C)C(C)C	> 20 µM	> 20 µM	> 20 µM	> 20 µM	> 20 µM	> 20 µM	–	–	> 20 µM	> 20 µM	> 20 µM	> 20 µM	> 20 µM	> 20 µM	> 20 µM	> 20 µM
COc1cc(O)ccc1C(=S)SC	–	> 100 µM	–	> 100 µM	–	> 100 µM	–	55.6 µM	–	–	–	> 100 µM	–	> 100 µM	–	> 100 µM
CSc1nc(Nc2cccc(NC(=O)CCl)c2)c(C#N)c(-c2cccc([N+](=O)[O-])c2)n1	0.191 µM	0.635 µM	4.2 µM	10.9 µM	16.6 µM	49.7 µM	2.1 µM	5.6 µM	0.0373 µM	0.152 µM	9.83 µM	36.4 µM	–	–	2.38 µM	7.64 µM

Source: PubChem BioAssay (NCI)
